Results: patent publication US5688818A, “Succinamic acid compound, production method thereof and use thereof” (Senju Pharmaceutical Co., Ltd., priority 1993, dated 1997)

Experiments:
aldose reductase = target: T1, aldose reductase (Sus scrofa, UniProt P80276); assay: Aldose reductase activity-inhibitory action; type: biochemical; settings: pH 6.2, 25° C., 2 minutes, 3 mM dl-glyceraldehyde substrate, 0.1 mM NADPH, swine lens enzyme
T1 construct: swine lenses freeze-stored at -80° C. were homogenized with distilled water; from tissue; host or cells: swine lens (40% ammonium sulfate supernatant, dialyzed)
Procedure: 1) Aldose reductase activity-inhibitory action
That is, swine lenses freeze-stored at -80° C. were homogenized with distilled water and centrifuged at 10,000 G for 15 minutes. The supernatant was prepared into a 40% ammonium sulfate solution and subjected to centrifugation at 10,000 G for 10 minutes.
The activity of aldose reductase was determined by the above-mentioned method of S. Hayman et al. That is, the above-mentioned enzyme solution (25 μl) and a drug solution (25 μl) dissolved in 1% DMSO at various concentrations were added to a 40 mM phosphate buffer (200 μl, pH 6.2) containing, at final concentrations, 0.4M lithium sulfate, 0. 1 mM NADPH (reduced type nicotinamide adenine dinucleotide phosphate) and 3 mM dl-glyceraldehyde as a substrate.
The test drug number indicates the example number to be mentioned later.

[1] = system: sorbitol content in the tissues (erythrocytes, sciatic nerve, lens); assay: Inhibitory action on sorbitol accumulation in tissues of rats with experimental diabetes; type: in vivo, Sprague-Dawley rats; settings: relative to control group = 100%; for Sorbitol accumulation (%) nerve: sciatic nerve
Procedure: 2) Inhibitory action on sorbitol accumulation in tissues of rats with experimental diabetes
Test Compounds: Compounds of Example 23 and 29 and EPALRESTAT (described in Japanese Patent Unexamined Publication No. 40478/1982)
Sprague-Dawley rats (male, 6 weeks old, 5-6 per group) were fasted for 18 hours and injected with streptozotocin (SIGMA, 60 mg/kg) via the tail vein under ether anesthesia to prepare rats with diabetes.
The test compounds were orally administered at 4, 8 and 24 hours after the injection of streptozotocin. EPALRESTAT was administered orally in the dose of 30 mg/kg and the compounds of Examples 23 and 29 were administered orally in the dose of 10 mg/kg as a 0. 5% carboxymethylcellulose suspension, respectively. During the administrations, the rats were raised under free access to feed and water and the sorbitol content in the tissues (erythrocytes, sciatic nerve, lens) was determined 3 hours after the final administration, according to the enzyme method of H. Y. Bergmeyer et al. [Methods of Enzymatic Analysis, vol. 3, 1323-1330 (1974)] with the use of SDH (sorbitol dehydrogenase) and NAD (β-nicotinamide adenine dinucleotide). The results are expressed in percent (%) relative to the value of a control group administered with a 0.5% carboxymethylcellutose solution (solvent) instead of the compound, which was taken as 100%.

Normal ICR mice = settings: mouse, in vivo
Procedure: The acute toxicity (safety) of the single dose of the compound of the present invention was confirmed by the following test.
Normal ICR mice (male, 7 weeks old, 5 per group) were fasted for 18 hours and the compound (300 mg/kg) of Example 29 was orally administered as a 0.5% carboxymethylcellulose suspension. To the control group, a 0.5% carboxymethylcellulose solution alone was orally administered and observation was continued for 14 days thereafter, during which period the mice were allowed to take feed and water freely.

[2] = 30 mg/kg orally at 4, 8 and 24 hours after streptozotocin
[3] = 10 mg/kg orally at 4, 8 and 24 hours after streptozotocin, * p < 0.01 Tukey

| IC50 (aldose reductase) [nM] | SMILES | Sorbitol accumulation (%) erythrocytes [1, 2] [%] | Sorbitol accumulation (%) lens [1, 2] [%] | Sorbitol accumulation (%) nerve [1, 2] [%] | Sorbitol accumulation (%) erythrocytes [1, 3] [%] | Sorbitol accumulation (%) lens [1, 3] [%] | Sorbitol accumulation (%) nerve [1, 3] [%] | death case among the mice (Normal ICR mice) |
| --- | --- | --- | --- | --- | --- | --- | --- | --- |
| 21 | CC(/C=C1\SC(=S)N(CC(=O)O)C1=O)=C\c1ccccc1 [EPALRESTAT, reference compound] | 66.5 | 89.1 | 99.9 | – | – | – | – |
| 13 | CN(Cc1nc2c(F)c(F)cc(F)c2s1)C(=O)CCC(=O)O [Example 23, N-(4,5,7-Trifluorobenzothiazol-2-yl)methyl-N-methylsuccinamic acid] | – | – | – | 6.3 | 69.5 | 4.2 | – |
| 18 | CCCCN(Cc1nc2c(F)c(F)cc(F)c2s1)C(=O)CCC(=O)O [Example 26, N-(4,5,7-Trifluorobenzothiazol-2-yl)methyl-N-butylsuccinamic acid] | – | – | – | – | – | – | – |

| SMILES | IC50 (aldose reductase) [nM] | Sorbitol accumulation (%) erythrocytes [1, 2] [%] | Sorbitol accumulation (%) lens [1, 2] [%] | Sorbitol accumulation (%) nerve [1, 2] [%] | Sorbitol accumulation (%) erythrocytes [1, 3] [%] | Sorbitol accumulation (%) lens [1, 3] [%] | Sorbitol accumulation (%) nerve [1, 3] [%] | death case among the mice (Normal ICR mice) |
| --- | --- | --- | --- | --- | --- | --- | --- | --- |
| O=C(O)CCC(=O)N(Cc1nc2c(F)c(F)cc(F)c2s1)C1CC1 [Example 29] | 17 | – | – | – | 12.2 | 45.4 | 1.0 | no death case |
